Source: patent US20230114865A1, “PHENYL PYRROLE AMINOGUANIDINE SALTS AND FORMULATIONS” (SYNACT PHARMA APS, priority 2021, published 2023)
Where two headings read alike, the source gives them in different places. Marks after values point to notes of the source that are not given here.

How the values were obtained:
[1] = Solubility of additional AP1189 salts, HCl/KCl buffer 0.5 M pH 1.2; format: physicochemical
[2] = buffer pH 1.2, fully dissolved, succinate 0.5 h
Description: As a result, the pH was adjusted to 1.2 with concentrated hydrochloric acid in both solutions. Both sample preparations were diluted 500 times with the sample diluent (acetonitrile:water 1:1 v/v).

primary macrophages = conditions: cited from earlier work
[3] = Chemical stability of AP1189 suspension in Syrspend SF Alka, HPLC; format: physicochemical; conditions: room temp.; for Total Impurities (% Area) Initial / Total Impurities (% Area) T = 30 min / Total Impurities (% Area) T = 60 min / Total Impurities (% Area) T = 90 min: Syrspend SF Alka
Description: An experiment was conducted at lowest (15 mg) and highest (400 mg) dose strength to assess the dispersability and physical stability of the suspension. Chemical stability of the suspension was assessed by HPLC for 90 minutes at every 30 minutes interval.

MC1R = conditions: cited from earlier work
[4] = Forced degradation studies on AP1189 at low pH; format: physicochemical; conditions: within 24 hours
melanocytes = conditions: cited from earlier work
[5] = system: experimental inflammatory arthritis; conditions: in vivo; cited from earlier work
[6] = Stability of AP1189 in Ora-Sweet and Ora-Sweet SF, HPLC; format: physicochemical; conditions: 20 mg/ml suspension, pH 4.25, T=0
Description: Stability of AP1189 in Ora-Sweet and Ora-Sweet SF was tested.

MC3R = conditions: cited from earlier work
peritonitis = conditions: in vivo; cited from earlier work

CC1(C)C2CCC1(CS(=O)(=O)O)C(=O)C2 (stereo not shown)
Solubility HCI/KCI Buffer 0.5 M pH 1.2 [1]: <15 mM

(E)-N-[1-(2-nitrophenyl)-1-H-pyrrole-2-yl-allylideneamino]-guanidinium acetate [AP1189 acetate]
Determined concentration in pH 1.2 samples ([2]; acetate 5 h): >223 mg/mL
Determined concentration in pH 1.2 samples ([2]; time in cell: acetate 5 h): >617 mM (5 h)

NC(N)=N/N=C/C=C/c1cccn1-c1ccccc1[N+](=O)[O-] [AP1189, (E)-N-[1-(2-nitrophenyl)-1-H-pyrrole-2-yl-allylideneamino]-guanidine]
cytokine release in macrophages (primary macrophages): reduce cytokine release
efferocytosis in primary macrophages (primary macrophages): proefferocytic effect
stability in Syrspend SF Alka (in words) ([3]; 90 minutes): stable
Total Impurities (% Area) Initial ([3]; dose strength 15 mg): 0.89* % Area
Total Impurities (% Area) T = 30 min ([3]; dose strength 15 mg): 0.94* % Area
Total Impurities (% Area) T = 60 min ([3]; dose strength 15 mg): 0.88* % Area
Total Impurities (% Area) T = 90 min ([3]; dose strength 15 mg): 0.87* % Area
Total Impurities (% Area) Initial ([3]; dose strength 400 mg): 0.45 % Area
Total Impurities (% Area) T = 30 min ([3]; dose strength 400 mg): 0.45 % Area
Total Impurities (% Area) T = 60 min ([3]; dose strength 400 mg): 0.45 % Area
Total Impurities (% Area) T = 90 min ([3]; dose strength 400 mg): 0.45 % Area
ERK1/2 phosphorylation (MC1R): cause ERK1/2 phosphorylation
canonical cAMP generation (MC1R): does not induce canonical cAMP generation
characterisation at MC1R (MC1R): biased agonist
degradation at low pH [4]: at least 20%
melanogenesis in melanocytes (melanocytes): no melanogenesis was induced
macroscopic and histological parameters of joint disruption [5]: significantly reduce
AP1189 degradation in Ora-Sweet SF, Initial [6]: <LOQ
ERK1/2 phosphorylation (MC3R): cause ERK1/2 phosphorylation
canonical cAMP generation (MC3R): does not induce canonical cAMP generation
characterisation at MC3R (MC3R): biased agonist
actions in peritonitis (peritonitis): elicit anti-inflammatory actions
